Assay results reported in patent US20080188481A1 (priority 2002, published 2008).

What follows are compounds tested on HIV-1 single-round infectious reporter virus (assay: Single-round infectious HIV-1 luciferase reporter virus infection of HeLa CD4 cells (antiviral EC50)). Conditions: Human immunodeficiency virus 1, HeLa, 72 h, read-out: EC50 Group from Table 1.
Type: cell-based
Experimental: • Virus production—Human embryonic Kidney cell line, 293T, was propagated in Dulbecco's Modified Eagle Medium (Invitrogen, Carlsbad, Calif.) containing 10% fetal Bovine serum (FBS, Sigma, St. Louis, Mo.). • Virus infection—Human epithelial cell line, HeLa, expressing the HIV-1 receptor CD4 was propagated in Dulbecco's Modified Eagle Medium (Invitrogen, Carlsbad, Calif.) containing 10% fetal Bovine serum (FBS, Sigma, St. Louis, Mo.) and supplemented with 0.2 mg/mL Geneticin (Invitrogen, Carlsbad, Calif.). Virus-Single-round infectious reporter virus was produced by co-transfecting human embryonic Kidney 293 cells with an HIV-1 envelope DNA expression vector and a proviral cDNA containing an envelope deletion mutation and the luciferase reporter gene inserted in place of HIV-1 nef sequences (Chen et al, Ref. 41). Transfections were performed using lipofectAMINE PLUS reagent as described by the manufacturer (Invitrogen, Carlsbad, Calif.).
• 1. HeLa CD4 cells were plated in 96 well plates at a cell density of 1×10^4 cells per well in 100 μl Dulbecco's Modified Eagle Medium containing 10% fetal Bovine serum and incubated overnight. • 2. Compound was added in a 2 μl dimethylsulfoxide solution, so that the final assay concentration would be ≦10 μM. • 3. 100 μl of single-round infectious reporter virus in Dulbecco's Modified Eagle Medium was then added to the plated cells and compound at an approximate multiplicity of infection (MOI) of 0.01, resulting in a final volume of 200 μl per well. • 4. Virally-infected cells were incubated at 37 degrees Celsius, in a CO2 incubator, and harvested 72 h after infection. • 5. Viral infection was monitored by measuring luciferase expression from viral DNA in the infected cells using a luciferase reporter gene assay kit, as described by the manufacturer (Roche Molecular Biochemicals, Indianapolis, Ind.). Infected cell supernatants were removed and 50 μl of lysis buffer was added per well. After 15 minutes, 50 μl of freshly-reconstituted luciferase assay reagent was added per well. Luciferase activity was then quantified by measuring luminescence using a Wallac microbeta scintillation counter. • 6. The percent inhibition for each compound was calculated by quantifying the level of luciferase expression in cells infected in the presence of each compound as a percentage of that observed for cells infected in the absence of compound and subtracting such a determined value from 100. • 7. An EC50 provides a method for comparing the antiviral potency of the compounds of this invention. The effective concentration for fifty percent inhibition (EC50) was calculated with the Microsoft Excel Xlfit curve fitting software. For each compound, curves were generated from percent inhibition calculated at 10 different concentrations by using a four paramenter logistic model (model 205). Table 1 is the key for the data in Table 2.
For O=C(C(=O)N1CCC(=C(c2ccccc2)c2ccccc2)CC1)c1c[nH]c2ccccc12 [Example 4], the EC50 was 1000 to 5000 nM.
In the case of COc1ncc(OC)c2c(C(=O)C(=O)N3CCC(=C(Cl)c4ccccc4)CC3)c[nH]c12 [Example 5], the EC50 is reported as under 1000 nM.
O=C(C(=O)N1CCC(=Cc2ccccc2)CC1)c1c[nH]c2c(-c3ncon3)ccc(F)c12 [Example 6] showed an EC50 of under 1000 nM.
Compound COc1ncc(OC)c2c(C(=O)C(=O)N3CCC(=C(C)c4ccccc4)CC3)c[nH]c12 [Example 8] has an EC50 of under 1000 nM.
With COc1ncc(OC)c2c(C(=O)C(=O)N3CCC(=C(F)c4ccccc4)CC3)c[nH]c12 [Example 9] the EC50 was under 1000 nM.
COc1ccnc2[nH]cc(C(=O)C(=O)N3CCC(=C(F)c4ccccc4)CC3)c12 [Example 10] gave an EC50 of under 1000 nM.
Work on COc1ncc(OC)c2c(C(=O)C(=O)N3CCC(=C(c4ccccc4)S(C)(=O)=O)CC3)c[nH]c12 [Example 12] yielded an EC50 of 1000 to 5000 nM.
Compound COc1ncc(OC)c2c(C(=O)C(=O)N3CCC(=Cc4ccccc4)CC3)c[nH]c12 [Example 13] has an EC50 of over 5000 nM.
Compound CC1CN(C(=O)C(=O)c2c[nH]c3ccccc23)CC/C1=C\c1ccccc1 (stereo not shown) [Example 14] has an EC50 of 1000 to 5000 nM.
With COc1cnc(Cl)c2[nH]cc(C(=O)C(=O)N3CCC(=C(F)c4ccccc4)CC3)c12 [Example 21] the EC50 was under 1000 nM.
Compound COc1ncc(OC)c2c(C(=O)C(=O)N3CCC(=C(C#N)c4nc5ccccc5[nH]4)CC3)c[nH]c12 [Example 23] has an EC50 of under 1000 nM.
COc1ncc(OC)c2c(C(=O)C(=O)N3CCC(=C(C(N)=O)c4ccccc4)CC3)c[nH]c12 [Example 47] gave an EC50 of under 1000 nM.
With COc1cnc(Cl)c2[nH]cc(C(=O)C(=O)N3CCC(=C(C(N)=O)c4ccccc4)CC3)c12 [Example 48] the EC50 was 1000 to 5000 nM.
In the case of COc1ncc(OC)c2c(C(=O)C(=O)N3CCC(=C(Br)c4ccccc4)CC3)c[nH]c12 [Example 48a, 1-[4-(1-Bromo-1-phenyl-methylene)-piperidin-1-yl]-2-(4,7-dimethoxy-6-azaindol-3-yl)-ethane-1,2-dione], the EC50 is reported as under 1000 nM.
Work on COc1cnc(-c2cnccn2)c2[nH]cc(C(=O)C(=O)N3CCC(=C(C(N)=O)c4ccccc4)CC3)c12 [Example 49] yielded an EC50 of under 1000 nM.
Work on COc1ncc(OC)c2c(C(=O)C(=O)N3CCC(=C(c4ccccc4)c4nccs4)CC3)c[nH]c12 [Example 49a, 1-[4-(1-Phenyl-1-(thiazol-2-yl)-methylene)-piperidin-1-yl]-2-(4,7-dimethoxy-6-azaindol-3-yl)-ethane-1,2-dione] yielded an EC50 of under 1000 nM.
COc1ncc(OC)c2c(C(=O)C(=O)N3CCC(=C(c4ccccc4)c4ccccn4)CC3)c[nH]c12 [Example 50, 1-[4-(1-Phenyl-1-(pyridin-2-yl)-methylene)-piperidin-1-yl]-2-(4,7-dimethoxy-6-azaindol-3-yl)-ethane-1,2-dione] gave an EC50 of under 1000 nM.
For COc1ncc(OC)c2c(C(=O)C(=O)N3CCC(=C(c4ccccc4)c4nnco4)CC3)c[nH]c12 [Example 51, 1-[4-(1-Phenyl-1-(1,3,4-oxadiazol-2-yl)-methylene)-piperidin-1-yl]-2-(4,7-dimethoxy-6-azaindol-3-yl)-ethane-1,2-dione], the EC50 was under 1000 nM.
With COc1ncc(OC)c2c(C(=O)C(=O)N3CCC(=C(c4ccccc4)c4nnc(C)o4)CC3)c[nH]c12 [Example 52, 1-[4-(1-Phenyl-1-(5-methyl-1,3,4-oxadiazol-2-yl)-methylene)-piperidin-1-yl]-2-(4,7-dimethoxy-6-azaindol-3-yl)-ethane-1,2-dione] the EC50 was under 1000 nM.
Compound COc1ncc(OC)c2c(C(=O)C(=O)N3CCC(=C(c4ccccc4)c4nnc(C(F)(F)F)o4)CC3)c[nH]c12 [Example 53, 1-[4-(1-Phenyl-1-(5-trifluoromethyl-1,3,4-oxadiazol-2-yl)-methylene)-piperidin-1-yl]-2-(4,7-dimethoxy-6-azaindol-3-yl)-ethane-1,2-dione] has an EC50 of under 1000 nM.
With COc1ncc(OC)c2c(C(=O)C(=O)N3CCC(=C(c4ccccc4)c4ccco4)CC3)c[nH]c12 [Example 54] the EC50 was under 1000 nM.
For COc1ncc(OC)c2c(C(=O)C(=O)N3CCC(=C(c4ccccc4)c4cc(C)cs4)CC3)c[nH]c12 [Example 55], the EC50 was under 1000 nM.
